From patent US8178506B2, “Oligomeric compounds and compositions for use in modulation of small non-coding RNAs” (Regulus Therapeutics Inc., priority 2003, dated 2012)
In the oligonucleotide strings, read from the 5' end, every base follows the letter of its sugar. An asterisk marks phosphorothioate; unmarked linkages are phosphodiester. Other units and linkages are bracketed, terminal groups are in braces. A string of capitals states the bases alone. e = 2'-O-(2-methoxyethyl) (MOE); [5mC] = 5-methylcytosine

Key:
Format in all cases: cell-based, human
HSL = HSL mRNA expression in adipocytes (real-time PCR)
Protocol: (§1) Expression of the four hallmark genes, HSL, aP2, Glut4, and PPARγ, is also measured in adipocytes transfected with oligomeric compounds of the invention. Cells are lysed on day nine post-transfection and total RNA is harvested. The amount of total RNA in each sample is determined using a Ribogreen Assay (Invitrogen Life Technologies, Carlsbad, Calif.).
(§2) For assaying adipocyte differentiation, expression of the four hallmark genes, HSL, aP2, Glut4, and PPARγ, as well as triglyceride (TG) accumulation and leptin secretion were measured in adipocytes transfected with the uniform 2′-MOE phosphorothioate (PS) oligomeric compounds previously described. Cells are lysed on day nine post-transfection, in a guanadinium-containing buffer and total RNA is harvested. Real-time PCR is performed (Applied Biosystems, Prism 7700) on the total RNA using the following primer/probe sets for the adipocyte differentiation hallmark genes: (aP2): forward 5′-GGTGGTGGAATGCGTCATG-3′ (SEQ ID NO: 746), reverse 5′-[…]-3′ (SEQ ID NO: 747), probe 5′-FAM-[…]-TAMRA-3′ (SEQ ID NO: 748); (Glut4): forward 5′-GGCCTCCGCAGGTTCTG-3′ (SEQ ID NO: 749), reverse 5′-[…]-3′ (SEQ ID NO: 750), probe 5′-FAM-[…]-TAMRA-3′ (SEQ ID NO: 751); (HSL): forward 5′-ACCTGCGCACAATGACACA-3′ (SEQ ID NO: 752), reverse 5′-[…]-3′ (SEQ ID NO: 753), probe 5′-FAM-[…]-TAMRA-3′ (SEQ ID NO: 754); (PPAR-γ): forward 5′-[…]-3′ (SEQ ID NO: 755), reverse 5′-[…]-3′ (SEQ ID NO: 756), probe 5′-FAM-[…]-TAMRA-3′ (SEQ ID NO: 757). The amount of total RNA in each sample is determined using a Ribogreen Assay (Molecular Probes, Eugene, Oreg.), and expression levels of the adipocyte differentiation hallmark genes were normalized to total RNA.

Glut4 = Glut4 mRNA expression in adipocytes (real-time PCR)
Protocol: as §1, §2

adipocytes = assay: Triglyceride accumulation assay in adipocytes
Protocol: The triglyceride accumulation assay measures the synthesis of triglyceride by adipocytes. Triglyceride accumulation is measured using the Infinity™ Triglyceride reagent kit (Sigma-Aldrich, St. Louis, Mo.). On day nine post-transfection, cells are washed and lysed at room temperature, and the triglyceride assay reagent is added. Triglyceride accumulation is measured based on the amount of glycerol liberated from triglycerides by the enzyme lipoprotein lipase. Liberated glycerol is phosphorylated by glycerol kinase, and hydrogen peroxide is generated during the oxidation of glycerol-1-phosphate to dihydroxyacetone phosphate by glycerol phosphate oxidase. Horseradish peroxidase (HRP) uses H2O2 to oxidize 4-aminoantipyrine and 3,5 dichloro-2-hydroxybenzene sulfonate to produce a red-colored dye. Dye absorbance, which is proportional to the concentration of glycerol, is measured at 515 nm using an UV spectrophotometer. Glycerol concentration is calculated from a standard curve for each assay, and data are normalized to total cellular protein as determined by a Bradford assay (Bio-Rad Laboratories, Hercules, Calif.).
An increase in triglyceride content is another well-established marker for adipocyte differentiation. The triglyceride accumulation assay measures the synthesis of triglyceride by adipocytes. Triglyceride accumulation was measured using the Infinity™ Triglyceride reagent kit (Sigma-Aldrich, St. Louis, Mo.). Human white preadipocytes (Zen-Bio Inc., Research Triangle Park, N.C.) were grown in preadipocyte media (ZenBio Inc.). One day before transfection, 96-well plates were seeded with 3000 cells/well. Cells were transfected according to standard published procedures with 250 nM oligomeric compound in LIPOFECTIN™ (Invitrogen Corporation, Carlsbad, Calif.) (Monia et al., J. Biol. Chem. 1993 268(19):14514-22). Oligomeric compounds were tested in triplicate on each 96-well plate, and the effects of TNF-α, a positive drug control that inhibits adipocyte differentiation, were also measured in triplicate. Negative and transfectant-only controls may be measured up to six times per plate. After the cells have reached confluence (approximately three days), they were exposed to differentiation media (Zen-Bio, Inc.) containing a PPAR-γ agonist, IBMX, dexamethasone, and insulin for three days. Cells were then fed adipocyte media (Zen-Bio, Inc.), which was replaced at 2 to 3 day intervals. […] Triglyceride accumulation was measured based on the amount of glycerol liberated from triglycerides by the enzyme lipoprotein lipase. Liberated glycerol is phosphorylated by glycerol kinase, and hydrogen peroxide is generated during the oxidation of glycerol-1-phosphate to dihydroxyacetone phosphate by glycerol phosphate oxidase. Horseradish peroxidase (HRP) uses H2O2 to oxidize 4-aminoantipyrine and 3,5 dichloro-2-hydroxybenzene sulfonate to produce a red-colored dye. Dye absorbance, which is proportional to the concentration of glycerol, was measured at 515 nm using an UV spectrophotometer. Glycerol concentration was calculated from a standard curve for each assay, and data were normalized to total cellular protein as determined by a Bradford assay (Bio-Rad Laboratories, Hercules, Calif.). Results are expressed as a percent±standard deviation relative to transfectant-only control.

aP2 = aP2 mRNA expression in adipocytes (real-time PCR); conditions: for aP2 mRNA: Table 75
Protocol: as §1, §2

PPARγ = PPARγ mRNA expression in adipocytes (real-time PCR)
Protocol: as §1, §2

[1] = Table 17, differentiating adipocytes, control = treatment with ISIS 342673
[2] = differentiating adipocytes transfected with oligomeric compound, Table 75
[3] = differentiating adipocytes transfected with oligomeric compound
[4] = Table 18, differentiating adipocytes, control = treatment with ISIS 342673

Substance	HSL mRNA (HSL; [1])	HSL mRNA (HSL; [2])	GLUT4 mRNA (Glut4; [1])	GLUT4 mRNA (Glut4; [2])	TG (triglyceride accumulation) (adipocytes; [1])	TG (triglyceride accumulation) (adipocytes; [2])	AP2 mRNA (aP2; [1])	aP2 mRNA (aP2; [3])	PPAR gamma mRNA (PPARγ; [1])	PPAR gamma mRNA (PPARγ; [2])	HSL mRNA (HSL; [3])	GLUT4 mRNA (Glut4; [3])	TG (triglyceride accumulation) (adipocytes; [3])	AP2 mRNA (aP2; [3])	PPAR gamma mRNA (PPARγ; [3])	HSL mRNA (HSL; [4])	GLUT4 mRNA (Glut4; [4])	TG (triglyceride accumulation) (adipocytes; [4])	AP2 mRNA (aP2; [4])	PPAR gamma mRNA (PPARγ; [4])
328139 (eT*eA*e[5mC]*eT*eT*eT*eT*e[5mC]*eA*eT*eT*e[5mC]*e[5mC]*e[5mC]*e[5mC]*eT*e[5mC]*eA*e[5mC]*e[5mC]*eA; anti-miR) [compound 328139]	92.6 percentage of control	116 percentage of untreated control (UTC)	106.3 percentage of control	85 percentage of untreated control (UTC)	89.1 percentage of control	90 percentage of untreated control (UTC)	98.3 percentage of control	100 percentage of untreated control (UTC)	115.0 percentage of control	91 percentage of untreated control (UTC)										
328122 (antisense e[5mC]*eA*eA*eA*eA*e[5mC]*eA*eT*eA*eA*eA*eA*eA*eT*e[5mC]*e[5mC]*eT*eT*eG*e[5mC]*eA) [compound 328122]	72.7 percentage of control	89 percentage of untreated control (UTC)	85.9 percentage of control	91 percentage of untreated control (UTC)	78.9 percentage of control	97 percentage of untreated control (UTC)	79.3 percentage of control	99 percentage of untreated control (UTC)	77.8 percentage of control	103 percentage of untreated control (UTC)										
340358 (antisense CAGCUAUGCCAGCAUCUUGCC; all 2'-MOE, all phosphorothioate, methylation of C and T or U not given here) [compound 340358]		24 percentage of untreated control (UTC)		21 percentage of untreated control (UTC)		23 percentage of untreated control (UTC)		47 percentage of untreated control (UTC)		42 percentage of untreated control (UTC)										
328093 (antisense eT*eA*eA*eA*e[5mC]*eA*eT*e[5mC]*eA*e[5mC]*eT*eG*e[5mC]*eA*eA*eG*eT*e[5mC]*eT*eT*eA) [compound 328093]											89 percentage of untreated control (UTC)	73 percentage of untreated control (UTC)	59 percentage of untreated control (UTC)	97 percentage of untreated control (UTC)	99 percentage of untreated control (UTC)					
340354 (antisense UCAGACCGAGACAAGUGCAAUG; all 2'-MOE, all phosphorothioate, methylation of C and T or U not given here) [compound 340354]		56 percentage of untreated control (UTC)		61 percentage of untreated control (UTC)		64 percentage of untreated control (UTC)		72 percentage of untreated control (UTC)		74 percentage of untreated control (UTC)										
346691 (GCAGAAGCAUUUCCACACAC; all 2'-MOE, all phosphorothioate, methylation of C and T or U not given here) [compound 346691]		69 percentage of untreated control (UTC)		64 percentage of untreated control (UTC)		56 percentage of untreated control (UTC)		69 percentage of untreated control (UTC)		79 percentage of untreated control (UTC)										
340356 (antisense CUCAAUAGACUGUGAGCUCCUU; all 2'-MOE, all phosphorothioate, methylation of C and T or U not given here) [compound 340356]		59 percentage of untreated control (UTC)		54 percentage of untreated control (UTC)		43 percentage of untreated control (UTC)		73 percentage of untreated control (UTC)		62 percentage of untreated control (UTC)										
328102 (antisense eG*e[5mC]*e[5mC]*e[5mC]*e[5mC]*eA*eT*eT*eA*eA*eT*eA*eT*eT*eT*eT*eA*eA*e[5mC]*e[5mC]*eA) [compound 328102]		99 percentage of untreated control (UTC)		58 percentage of untreated control (UTC)		70 percentage of untreated control (UTC)		96 percentage of untreated control (UTC)		94 percentage of untreated control (UTC)						97.0 percentage of control	79.2 percentage of control	95.9 percentage of control	87.9 percentage of control	93.7 percentage of control
TNF-alpha	0.7 percentage of control		0.5 percentage of control		10.0 percentage of control		5.5 percentage of control		18.8 percentage of control							3.1 percentage of control	1.9 percentage of control	14.5 percentage of control	9.6 percentage of control	27.9 percentage of control
346920 (AGCAAAAAUGUGCUAGUGCCAAA; all 2'-MOE, all phosphorothioate, methylation of C and T or U not given here) [compound 346920]		53 percentage of untreated control (UTC)		61 percentage of untreated control (UTC)		63 percentage of untreated control (UTC)		70 percentage of untreated control (UTC)		70 percentage of untreated control (UTC)										
328132 (antisense eG*eT*eG*eA*eG*eA*eG*eT*eA*eG*e[5mC]*eA*eT*eG*eT*eT*eT*eG*eT*e[5mC]*eT) [compound 328132]	73.7 percentage of control		72.1 percentage of control		114.1 percentage of control		90.2 percentage of control		90.0 percentage of control		89 percentage of untreated control (UTC)	67 percentage of untreated control (UTC)	120 percentage of untreated control (UTC)	81 percentage of untreated control (UTC)	94 percentage of untreated control (UTC)					
